This note sets out measurements from publication PMC2375326, “In vitro evaluation of amino acid prodrugs of novel antitumour 2-(4-amino-3-methylphenyl)benzothiazoles” (British Journal of Cancer, 2002).

The test system of series [1] is MDA 468 (ER−) human derived breast carcinoma cells. In words: Growth inhibitory assay (MTT), MDA 468. Format: cell-based. To be noted: Breast carcinoma cell, ER− MDA 468, 3 days (72 h) treatment, n=8, representative mean, ^a = biphasic dose response. The procedure: Prodrugs were prepared as 10 mM top stocks, dissolved in dimethylsulphoxide (DMSO) or sterile ddH2O, and stored at 4°C, protected from light for a maximum period of 4 weeks. MCF-7 (ER+) and MDA 468 (ER−) human derived breast carcinoma cells, cultivated at 37°C in an atmosphere of 5% CO2 in RPMI 1640 medium supplemented with 2 mM L-glutamine and 10% foetal calf serum, were routinely subcultured twice weekly to maintain continuous logarithmic growth. Cells were seeded into 96-well microtiter plates at a density of 5×10^3 per well and allowed 24 h to adhere before drugs were introduced (final concentration 0.1 nM–100 μM, n=8). Serial drug dilutions were prepared in medium immediately prior to each assay. Viable cell masses at the time of drug addition (time-zero), and following 72 h drug exposure were determined by cell-mediated 3-(4,5-dimethylthiazol-2-yl)-2,5-diphenyltetrazolium bromide (MTT) reduction. MTT was added to each well (final concentration 400 μg ml^−1) and plates were incubated at 37°C for 4 h to allow reduction of MTT by viable cell dehydrogenases to an insoluble formazan product. Well supernatants were aspirated and cellular formazan solubilised by addition of DMSO : glycine buffer (pH 10.5) (4 : 1). Cell growth as well as drug activity were determined by measuring absorbance at 550 nm using an Anthos Labtec systems plate reader.

Another series concerns the target T1, CYP1A1 (Homo sapiens, UniProt P04798).
T1 sequence (P04798 1-512): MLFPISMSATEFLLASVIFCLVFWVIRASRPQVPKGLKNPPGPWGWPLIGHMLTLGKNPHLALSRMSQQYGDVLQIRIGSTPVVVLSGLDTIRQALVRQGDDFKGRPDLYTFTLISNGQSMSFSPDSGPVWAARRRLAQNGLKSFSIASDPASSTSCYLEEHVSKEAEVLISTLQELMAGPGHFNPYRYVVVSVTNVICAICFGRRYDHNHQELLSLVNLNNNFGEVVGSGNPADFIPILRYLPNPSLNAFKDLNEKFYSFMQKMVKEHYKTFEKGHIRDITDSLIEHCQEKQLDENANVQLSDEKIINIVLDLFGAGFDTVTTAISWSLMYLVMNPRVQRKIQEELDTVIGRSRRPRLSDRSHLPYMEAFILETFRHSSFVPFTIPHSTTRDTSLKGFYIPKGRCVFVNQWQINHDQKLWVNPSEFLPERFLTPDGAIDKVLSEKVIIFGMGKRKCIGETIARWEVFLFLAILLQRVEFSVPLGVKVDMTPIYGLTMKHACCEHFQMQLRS
The experiment in a line: Inhibition of recombinant CYP1A1 microsomal EROD activity. It counts as biochemical. To be noted: microsomes expressing recombinant CYP1A1, pH 7.4, probe 7-ethoxyresorufin (100 μM); 30 μM agent; incubates without drug = 100% activity; mean of three, s.d. <10%; read-out: Microsomal CYP1A1 EROD activity (% control). Here is the method: A sensitive and rapid fluorometric assay was used to measure EROD activity ([Burke et al, 1994]). Incubation mixtures (total 1 ml) consisted of 100 mM Tris-HCl (pH 7.4), 50 μM MgCl2, 100 μM 7-ethoxyresorufin and 100 μl cell homogenate. Homogenates were prepared following treatment of cells for 24 h with compounds 1, 2, 2a, 2b, 3, 3a, 3b, 4, 4a and 4b or vehicle alone and protein content determined (n=3). Thus induction of ethoxyresorufin O-deethylation by agents under study, catalysed by CYP1A1 activity, could be determined. Alternatively, microsomes expressing recombinant CYP1A1 (0.1 mg ml^−1) provided the enzyme source for EROD catalysis, in the presence or absence of drug, in order to determine inhibition of CYP1A1 activity by compounds 1, 2, 2a, 2b, 3, 3a, 3b, 4, 4a and 4b. Incubation mixtures were pre-incubated for 5 min at 37°C before initiation of reaction by addition of NADPH (500 μM). Following further incubations at 37°C (30 min for cell homogenates, 15 min for CYP1A1 microsomes), reactions were terminated by addition of 3 ml ice-cold acetonitrile. Reaction mixtures were centrifuged (1400 r.p.m., 10 min) before analyses of supernatants. Fluorescence was read on a Perkin-Elmer LS-5 luminescence spectrometer (excitation, 530 nm; emission 585 nm). Estimation of resorufin reaction product (pmoles mg^−1 protein, pmoles 100 μg^−1 microsomes), as a measure of CYP1A1 activity, was determined following performance of a resorufin standard curve.

Series [2] has as its system CYP1A1 protein expression in MCF-7 cells. In words: Western blot of CYP1A1 protein, MCF-7 lysates. The conditions noted are these: 1 μM, 24 h. It counts as cell-based, human. The procedure: Whole cell lysates were prepared for examination of CYP1A1 protein expression from untreated MCF-7, IGROV-1 and HCT 116 cultures and following exposure of cells to compounds 1, 2, 2a, 2b, 3, 3a, 3b, 4, 4a and 4b. Following protein determination (n=3, [Bradford, 1976]) and addition of sample buffer, samples were boiled at 95°C for 5 min and solubilised proteins (50 μg) were separated by sodium dodecyl sulphate (SDS) polyacrylamide gel (10%) electrophoresis. Proteins were electroblotted to polyvinylidene difluoride (PVDF) membranes and probed for CYP1A1 protein with polyclonal antiserum specific for human CYP1A1/1A2 (Gentest Corporation). Secondary antibody was conjugated to alkaline phosphatase, and CYP1A1 was detected following brief (<10 min) incubation with bromochloroindolyl phosphate and nitro-blue tetrazolium in alkaline phosphatase buffer. Molecular weight markers and a positive control of recombinant CYP1A1 (Gentest Corporation), included in all blots, confirmed detection of 52 kDa CYP1A1 protein.
A general note: A western blot detects proteins with antibodies after separation by electrophoresis.

The next series has as its system A549/ATCC. In words: NCI in vitro cytotoxicity assay (SRB), A549/ATCC. Format: cell-based. The conditions noted are these: Homo sapiens, 48 h exposure, sulforhodamine B assay, mean graph, read-out: Log10 GI50 (A549/ATCC) (converted). The procedure: (§1) Cell culture and drug application procedures have been described previously ([Boyd and Paull, 1995]). Briefly, cell lines were inoculated into a series of 96-well microtiter plates, with varied seeding densities depending on growth characteristics of each cell line. Following a 24 h drug free incubation, test agents were added at five 10-fold dilutions with a maximum concentration of 100 μM. Cellular protein levels were determined after 48 h drug exposure by sulphorhodamine B colorimetry.
For orientation: The SRB assay estimates cell density from bound dye.

The next series relates to IGROV1. The experiment in a line: NCI in vitro cytotoxicity assay (SRB), IGROV1. Format: cell-based. To be noted: Homo sapiens, IGROV-1; 48 h exposure, sulforhodamine B assay, mean graph; read-out: Log10 GI50 (IGROV1) (converted). The procedure: as §1
A further series concerns OVCAR-8. In words: NCI in vitro cytotoxicity assay (SRB), OVCAR-8. Format: cell-based. The conditions noted are these: Homo sapiens, 48 h exposure, sulforhodamine B assay, mean graph, read-out: Log10 GI50 (OVCAR-8) (converted). Here is the method: as §1
In a further series the test system is MCF7. In words: NCI in vitro cytotoxicity assay (SRB), MCF7. It counts as cell-based. The conditions noted are these: Homo sapiens, 48 h exposure, sulforhodamine B assay, mean graph, read-out: Log10 GI50 (MCF7) (converted). The procedure: as §1
In another series the test system is NCI/ADR-RES. In words: NCI in vitro cytotoxicity assay (SRB), NCI/ADR-RES. It counts as cell-based. To be noted: Homo sapiens, 48 h exposure, sulforhodamine B assay, mean graph, read-out: Log10 GI50 (NCI/ADR-RES) (converted). The procedure: as §1

Regarding `Cc1cc(-c2nc3cc(F)ccc3s2)ccc1NC(=O)[C@@H](N)CCCCN` [Compound 2b], the GI50 was 0.0577 µM in series [1]; 1.7 µM in the series on A549/ATCC; less than 0.01 µM with IGROV1; 11.2 µM in the series with OVCAR-8; less than 0.01 µM with MCF7; 15.1 µM with NCI/ADR-RES. Further, the activity at 15 min, 30 μM at CYP1A1 was 38.5%. The “CYP1A1 protein expression (Western blot)” value in series [2] was “induced”.
Turning to `Cc1cc(-c2nc3cc(F)ccc3s2)ccc1N` [Compound 2, 2-(4-Amino-3-methylphenyl)-5-fluorobenzothiazole], the GI50 in series [1] is less than 0.0001 µM; in the series on A549/ATCC it was 6.92 µM; with IGROV1, less than 0.01 µM; in the series on OVCAR-8, more than 100 µM; in the series on MCF7, less than 0.01 µM; with NCI/ADR-RES, 66.1 µM. Besides, the activity at 15 min, 30 μM on CYP1A1 turned out to be 30.4%. Besides, in series [2], the “CYP1A1 protein expression (Western blot)” value was “induced”.
